Test results reported in US11046699B2, “Pyrazolo-pyrimidin-amino-cycloalkyl compounds and their therapeutic uses” (RAPT THERAPEUTICS, INC., priority 2018, dated 2021).
Structures can show the parent of a compound that is named as a salt. Where two headings read alike, the source gives them in different places.

Molecular target: GCN2 (Homo sapiens, UniProt Q9P2K8)
Assay: GCN2 enzymatic endpoint assay: phosphorylation of GFP-eIF2α measured by TR-FRET (Lanthascreen)
Format: biochemical
Method in brief: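 Endpoint GCN2 reaction with low ATP (2 μM) and 80 nM GFP-eIF2α, room temperature, 90 minutes. Detection mix with EDTA and Tb-labelled antibody; 520 nm/495 nm emission ratio reported.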

[1] = tested as described in Example 77, compound and/or hydrochloride, dihydrochloride or trifluoroacetic acid salt, read-out: IC 50 Activity
[2] = GCN2 biochemical IC50, 4 nM GCN2, 2 μM ATP, 80 nM GFP-eIF2α, 90 min RT, read-out: GCN2 activity

Chain of GCN2 (Q9P2K8 whole entry): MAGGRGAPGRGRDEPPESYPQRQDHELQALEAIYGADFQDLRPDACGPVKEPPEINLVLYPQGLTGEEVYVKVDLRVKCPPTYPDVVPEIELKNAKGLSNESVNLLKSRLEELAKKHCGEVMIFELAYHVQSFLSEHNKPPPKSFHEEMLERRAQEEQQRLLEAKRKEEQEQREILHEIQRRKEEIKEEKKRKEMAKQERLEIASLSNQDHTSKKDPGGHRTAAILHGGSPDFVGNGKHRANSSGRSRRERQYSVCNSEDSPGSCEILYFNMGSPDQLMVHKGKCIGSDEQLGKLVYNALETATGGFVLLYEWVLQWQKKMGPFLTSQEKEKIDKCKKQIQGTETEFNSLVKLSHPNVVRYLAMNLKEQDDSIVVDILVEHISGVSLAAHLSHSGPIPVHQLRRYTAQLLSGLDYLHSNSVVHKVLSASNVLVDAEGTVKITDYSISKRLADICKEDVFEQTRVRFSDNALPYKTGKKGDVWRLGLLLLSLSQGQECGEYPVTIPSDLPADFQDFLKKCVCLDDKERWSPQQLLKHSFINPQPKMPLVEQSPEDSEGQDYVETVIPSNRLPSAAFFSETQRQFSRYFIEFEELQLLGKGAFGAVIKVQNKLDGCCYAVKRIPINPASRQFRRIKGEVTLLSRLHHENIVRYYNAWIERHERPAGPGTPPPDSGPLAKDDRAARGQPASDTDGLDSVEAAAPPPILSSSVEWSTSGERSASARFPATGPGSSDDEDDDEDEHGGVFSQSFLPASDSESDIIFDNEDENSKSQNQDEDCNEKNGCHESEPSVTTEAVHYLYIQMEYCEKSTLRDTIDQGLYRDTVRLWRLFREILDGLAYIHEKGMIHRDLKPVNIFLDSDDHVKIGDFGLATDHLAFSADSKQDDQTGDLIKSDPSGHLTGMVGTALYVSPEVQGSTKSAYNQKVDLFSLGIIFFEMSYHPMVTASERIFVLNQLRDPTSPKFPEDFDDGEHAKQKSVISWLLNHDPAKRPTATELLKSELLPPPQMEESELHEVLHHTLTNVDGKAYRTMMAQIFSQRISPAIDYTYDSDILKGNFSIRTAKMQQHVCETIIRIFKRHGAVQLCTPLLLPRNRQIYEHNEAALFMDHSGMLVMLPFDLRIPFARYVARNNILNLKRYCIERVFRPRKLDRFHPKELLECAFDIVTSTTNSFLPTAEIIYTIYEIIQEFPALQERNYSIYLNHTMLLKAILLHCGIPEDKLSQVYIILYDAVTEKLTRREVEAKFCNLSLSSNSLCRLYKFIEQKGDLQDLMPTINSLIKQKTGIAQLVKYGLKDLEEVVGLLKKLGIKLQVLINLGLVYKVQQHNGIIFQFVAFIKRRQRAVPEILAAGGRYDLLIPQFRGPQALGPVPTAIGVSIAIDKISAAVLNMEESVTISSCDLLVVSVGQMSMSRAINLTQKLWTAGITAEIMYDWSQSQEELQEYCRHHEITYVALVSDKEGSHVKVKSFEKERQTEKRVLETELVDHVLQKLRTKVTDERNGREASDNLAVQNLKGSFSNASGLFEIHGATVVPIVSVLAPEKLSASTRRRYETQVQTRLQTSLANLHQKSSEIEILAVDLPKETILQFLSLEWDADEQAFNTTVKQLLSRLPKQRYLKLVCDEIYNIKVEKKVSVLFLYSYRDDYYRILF

Row | SMILES | IC50 [1] | IC50 [2]
1 | CNC(=O)[C@]1(C)CC[C@@H](Nc2ncc3c(Br)nn(-c4ccc(C#N)c(CNS(C)(=O)=O)c4)c3n2)C1 [(1R,3R)-3-[[3-bromo-1-[4-cyano-3-(methanesulfonamidomethyl)phenyl]pyrazolo[3,4-d]pyrimidin-6-yl]amino]-N,1-dimethyl-cyclopentanecarboxamide] | 25 to 200 nM | –
2 | CNC(=O)[C@]1(C)CC[C@@H](Nc2ncc3c(Br)nn(-c4cc(Cl)cc(OCC(C)O)c4)c3n2)C1 (stereo partly drawn) [(1R,3R)-3-[[3-bromo-1-[3-chloro-5-(2-hydroxypropoxy)phenyl]pyrazolo[3,4-d]pyrimidin-6-yl]amino]-N,1-dimethyl-cyclopentanecarboxamide] | 25 to 200 nM | –
3 | CNC(=O)[C@]1(C)CC[C@@H](Nc2ncc3c(Br)nn(-c4ccc(-c5ncco5)c(NC(=O)[C@@H]5CCNC5)c4)c3n2)C1 [(3R)-N-[5-[3-bromo-6-[[(1R,3R)-3-methyl-3-(methylcarbamoyl)cyclopentyl]amino]pyrazolo[3,4-d]pyrimidin-1-yl]-2-oxazol-2-yl-phenyl]pyrrolidine-3-carboxamide] | < 25 nM | –
4 | O=C([C@@H]1CC[C@@H](Nc2ncc3c(Br)nn(-c4cc(F)c5ncccc5c4)c3n2)C1)N1CCN2C(=O)COCC2C1 (stereo partly drawn) [8-((1R,3R)-3-((3-bromo-1-(8-fluoroquinolin-6-yl)-1H-pyrazolo[3,4-d]pyrimidin-6-yl)amino)cyclopentane-1-carbonyl)hexahydropyrazino [2,1-c][1,4]oxazin-4(3H)-one] | 25 to 200 nM | –
5 | CNC(=O)[C@]1(F)CC[C@@H](Nc2ncc3c(Br)nn(-c4cc(F)c5ncccc5c4)c3n2)C1 [(1S,3R)-3-[[3-bromo-1-(8-fluoro-6-quinolyl)pyrazolo[3,4-d]pyrimidin-6-yl]amino]-1-fluoro-N-methyl-cyclopentanecarboxamide] | 25 to 200 nM | –
6 | CNC(=O)[C@]1(C)CC[C@@H](Nc2ncc3c(Br)nn(-c4ccc(-c5nnc(C)s5)c(CCC#N)c4)c3n2)C1 [Example 49, (1R,3R)-3-((3-bromo-1-(3-(2-cyanoethyl)-4-(5-methyl-1,3,4-thiadiazol-2-yl)phenyl)-1H-pyrazolo[3,4-d]pyrimidin-6-yl)amino)-N,1-dimethylcyclopentane-1-carboxamide] | – | 25 to 200 nM
7 | CNC(=O)[C@@H]1CC[C@@H](Nc2ncc3c(Br)nn(-c4cnc5ncccc5c4)c3n2)C1 [(1R,3R)-3-[[3-bromo-1-(1,8-naphthyridin-3-yl)pyrazolo[3,4-d]pyrimidin-6-yl]amino]-N-methyl-cyclopentanecarboxamide] | 25 to 200 nM | –
8 | CNC(=O)[C@]1(C)CC[C@@H](Nc2ncc3c(Br)nn(-c4ccc(C#N)c(CCN)c4)c3n2)C1 [(1R,3R)-3-[[1-[3-(2-aminoethyl)-4-cyano-phenyl]-3-bromo-pyrazolo[3,4-d]pyrimidin-6-yl]amino]-N,1-dimethyl-cyclopentanecarboxamide] | 25 to 200 nM | –
9 | CNC(=O)[C@]1(C)CC[C@@H](Nc2ncc3c(Br)nn(-c4cc(CCCO)c5c(c4)CCC(=O)N5C)c3n2)C1 | < 25 nM | –
10 | CNC(=O)[C@]1(C)CC[C@@H](Nc2ncc3c(Br)nn(-c4ccc5c(c4)CS(=O)(=O)C5)c3n2)C1 [(1R,3R)-3-[[3-bromo-1-(2,2-dioxo-1,3-dihydro-2-benzothiophen-5-yl)pyrazolo[3,4-d]pyrimidin-6-yl]amino]-N,1-dimethyl-cyclopentanecarboxamide] | 25 to 200 nM | –
11 | COCc1noc([C@@H]2CC[C@@H](Nc3ncc4c(Br)nn(-c5ccc6ncccc6c5)c4n3)C2)n1 [Example 5, 3-bromo-N-((1R,3R)-3-(3-(methoxymethyl)-1,2,4-oxadiazol-5-yl)cyclopentyl)-1-(quinolin-6-yl)-1H-pyrazolo[3,4-d]pyrimidin-6-amine] | – | 500 to 1000 nM
12 | O=C(NCc1ncco1)[C@@H]1CC[C@@H](Nc2ncc3c(Br)nn(-c4ccc5ncccc5c4)c3n2)C1 [(1R,3R)-3-((3-bromo-1-(quinolin-6-yl)-1H-pyrazolo[3,4-d]pyrimidin-6-yl)amino)-N-(oxazol-2-ylmethyl)cyclopentane-1-carboxamide] | 25 to 200 nM | –
13 | CNC(=O)[C@@H]1CC[C@@H](Nc2ncc3c(Br)nn(-c4ccc5ncc(Cl)cc5c4)c3n2)C1 [(1R,3R)-3-[[3-bromo-1-(3-chloro-6-quinolyl)pyrazolo[3,4-d]pyrimidin-6-yl]amino]-N-methyl-cyclopentanecarboxamide] | 25 to 200 nM | –
14 | N#Cc1cc(-n2nc(Br)c3cnc(N[C@@H]4CC[C@@H](C(=O)N5CCS(=N)(=O)CC5)C4)nc32)cc2cccnc12 | < 25 nM | –
15 | CNC(=O)[C@]1(C)CC[C@@H](Nc2ncc3c(Br)nn(-c4ccc5ncn(CCCN)c(=O)c5c4)c3n2)C1 | 25 to 200 nM | –
16 | CNC(=O)[C@]1(C)CC[C@@H](Nc2ncc3c(Br)nn(-c4ccc5c(c4)OCC(=O)N5)c3n2)C1 [(1R,3R)-3-[[3-bromo-1-(3-oxo-4H-1,4-benzoxazin-7-yl)pyrazolo[3,4-d]pyrimidin-6-yl]amino]-N,1-dimethyl-cyclopentanecarboxamide] | 25 to 200 nM | –
17 | CNC(=O)CC1CC(Nc2ncc3c(Br)nn(-c4ccc(-c5nnc(C)s5)c(CCC#N)c4)c3n2)C1 (stereo not shown) | 25 to 200 nM | –

Row | SMILES | IC50 [1] | IC50 [2]
18 | CNC(=O)[C@]1(C)CC[C@@H](Nc2ncc3c(Br)nn(-c4ccc(-c5ncco5)c(C5CCNCC5)c4)c3n2)C1 [(1R,3R)-3-[[3-bromo-1-[4-oxazol-2-yl-3-(4-piperidyl)phenyl]pyrazolo[3,4-d]pyrimidin-6-yl]amino]-N,1-dimethyl-cyclopentanecarboxamide] | 25 to 200 nM | –
19 | CNC(=O)[C@]1(C)CC[C@@H](Nc2ncc3c(Br)nn(-c4ccc(-c5nnc(C)o5)c(C#N)c4)c3n2)C1 [Example 35, (1R,3R)-3-((3-bromo-1-(3-cyano-4-(5-methyl-1,3,4-oxadiazol-2-yl)phenyl)-1H-pyrazolo[3,4-d]pyrimidin-6-yl)amino)-N,1-dimethylcyclopentane-1-carboxamide; 2,2,2-trifluoroacetic acid] | – | < 25 nM
20 | CNC(=O)[C@]1(C)CC[C@@H](Nc2ncc3c(Br)nn(-c4ccc5ncn(CCO)c(=O)c5c4)c3n2)C1 | 25 to 200 nM | –
21 | CNC(=O)[C@]1(C)CC[C@@H](Nc2ncc3c(Br)nn(-c4ccc(N5CCOCC5)c(C#N)c4)c3n2)C1 [Example 59, (1R,3R)-3-((3-bromo-1-(3-cyano-4-morpholinophenyl)-1H-pyrazolo[3,4-d]pyrimidin-6-yl)amino)-N,1-dimethylcyclopentane-1-carboxamide hydrochloride] | – | 25 to 200 nM
22 | CC(C)(CN1CCCC1)NC(=O)[C@@H]1CC[C@@H](Nc2ncc3c(Br)nn(-c4ccc5ncccc5c4)c3n2)C1 | 25 to 200 nM | –
23 | CO[C@@H]1CC[C@@H](Nc2ncc3c(Br)nn(-c4cc(F)c5ncccc5c4)c3n2)C1 [3-bromo-1-(8-fluoro-6-quinolyl)-N-[(1R,3R)-3-methoxycyclopentyl]pyrazolo[3,4-d] pyrimidin-6-amine] | 25 to 200 nM | –
24 | CN1CCN(C(=O)[C@@H]2CC[C@@H](Nc3ncc4c(Br)nn(-c5cc(C#N)c6ncccc6c5)c4n3)C2)CC1=O [6-(3-bromo-6-(((1R,3R)-3-(4-methyl-3-oxo-piperazine-1-carbonyl)cyclopentyl)amino)-1H-pyrazolo[3,4-d]pyrimidin-1-yl)quinoline-8-carbonitrile] | 25 to 200 nM | –
25 | CNC(=O)[C@]1(CC(=O)N(C)C)CC[C@@H](Nc2ncc3c(Br)nn(-c4cc(F)c5ncccc5c4)c3n2)C1 [(1R,3R)-3-[[3-bromo-1-(8-fluoro-6-quinolyl)pyrazolo[3,4-d]pyrimidin-6-yl]amino]-1-[2-(dimethylamino)-2-oxo-ethyl]-N-methyl-cyclopentanecarboxamide] | < 25 nM | –
26 | N#Cc1cc(-n2nc(Br)c3cnc(N[C@@H]4CC[C@@H](C(=O)NC[C@@H]5COCCN5)C4)nc32)cc2cccnc12 [(1R,3R)-3-((3-bromo-1-(8-cyanoquinolin-6-yl)-1H-pyrazolo[3,4-d]pyrimidin-6-yl)amino)-N-(((R)-morpholin-3-yl)methyl)cyclopentane-1-carboxamide] | < 25 nM | –
27 | O=C(O)[C@@H]1CCC[C@@H](Nc2ncc3c(Br)nn(-c4ccc5ncccc5c4)c3n2)C1 [(1R,3R)-3-((3-bromo-1-(quinolin-6-yl)-1H-pyrazolo[3,4-d]pyrimidin-6-yl)amino) cyclohexane-1-carboxylic acid] | 500 to 1000 nM | –
28 | CNC(=O)[C@]1(C)CC[C@@H](Nc2ncc3c(Br)nn(-c4cc(Cl)cc(C(CN)OC)c4)c3n2)C1 (stereo partly drawn) [(1R,3R)-3-[[1-[3-(2-amino-1-methoxy-ethyl)-5-chloro-phenyl]-3-bromo-pyrazolo[3,4-d]pyrimidin-6-yl]amino]-N,1-dimethyl-cyclopentanecarboxamide; 2,2,2-trifluoroacetic acid] | 25 to 200 nM | –
29 | CNC(=O)[C@]1(C)CC[C@@H](Nc2ncc3c(Br)nn(-c4cc(Cl)cc(C5CNC(=O)CO5)c4)c3n2)C1 (stereo partly drawn) [(1R,3R)-3-[[3-bromo-1-[3-chloro-5-(5-oxomorpholin-2-yl)phenyl]pyrazolo [3,4-d]pyrimidin-6-yl]amino]-N,1-dimethyl-cyclopentanecarboxamide] | 25 to 200 nM | –
30 | N#Cc1cc(-n2nc(Br)c3cnc(N[C@@H]4CC[C@@H](C(=O)N5CCNC(=O)C5)C4)nc32)cc2cccnc12 [6-(3-bromo-6-(((1R,3R)-3-(3-oxopiperazine-1-carbonyl)cyclopentyl)amino)-1H-pyrazolo [3,4-d]pyrimidin-1-yl)quinoline-8-carbonitrile] | < 25 nM | –
31 | CNC(=O)[C@]1(C)CC[C@@H](Nc2ncc3c(Br)nn(-c4ccc(-c5cnn(C)c5)cc4)c3n2)C1 [(1R,3R)-3-[[3-bromo-1-[4-(1-methyl-pyrazol-4-yl)phenyl]pyrazolo[3,4-d]pyrimidin-6-yl]amino]-N,1-dimethyl-cyclopentanecarboxamide] | 25 to 200 nM | –
32 | CC(C)NC(=O)[C@@H]1CC[C@@H](Nc2ncc3c(Br)nn(-c4cc(C#N)c5ncccc5c4)c3n2)C1 [(1R,3R)-3-((3-bromo-1-(8-cyanoquinolin-6-yl)-1H-pyrazolo[3,4-d]pyrimidin-6-yl)amino)-N-isopropylcyclopentane-1-carboxamide] | 25 to 200 nM | –
33 | CNC(=O)[C@]1(C)CC[C@@H](Nc2ncc3c(Br)nn(-c4ccc5c(c4)COC5=O)c3n2)C1 | 25 to 200 nM | –
34 | CNC(=O)[C@]1(C#N)CC[C@@H](Nc2ncc3c(Br)nn(-c4ccc(-c5nnc(C)s5)cc4)c3n2)C1 | 25 to 200 nM | –
